Laboratory results published in patent US4864023A, “Pyrido(3,2,1-IJ)-1,3,4-benzoxadiazine derivatives” (priority 1988, dated 1989).
≈ marks a conversion by molar mass, not a printed value. Like-named read-outs stand apart in the source and are kept apart here.

Key:
Assay in all cases: in vitro antibacterial activity, standard agar dilution method
Format in all cases: cell-based
[1] = system: Staphylococcus epidermidis NR 2942; settings: NR2942, aerobic, read-out: minimum inhibitory concentration (MIC)
[2] = system: Citrobacter freundii IFO 12681; settings: IFO12681, aerobic, read-out: minimum inhibitory concentration (MIC)
[3] = system: Alcaligenes faecalis IFO 13111; settings: IFO13111, aerobic, read-out: minimum inhibitory concentration (MIC)
[4] = system: Bacillus subtilis PCI 219; settings: PCI219, aerobic, read-out: minimum inhibitory concentration (MIC)
[5] = system: Staphylococcus aureus Smith; settings: read-out: minimum inhibitory concentration (MIC)
[6] = system: Staphylococcus aureus FDA 209P JC-1; settings: FDA209P, read-out: minimum inhibitory concentration (MIC)
[7] = system: Pseudomonas aeruginosa NR 2950; settings: NR2950, aerobic, read-out: minimum inhibitory concentration (MIC)
[8] = system: Staphylococcus aureus NR 2855; settings: NR2855; Staphylococcus aureus NR 2855; aerobic; agar dilution; read-out: minimum inhibitory concentration (MIC)
[9] = system: Escherichia coli NIHJ JC-2; settings: NIHJJC2, aerobic, read-out: minimum inhibitory concentration (MIC)
[10] = system: Escherichia coli NR 2630
[11] = system: Enterobacter cloacae NR 2946; settings: NR2946, aerobic, read-out: minimum inhibitory concentration (MIC)
[12] = system: Salmonella typhimurium IFO 12529; settings: Salmonella enterica, aerobic, read-out: minimum inhibitory concentration (MIC)
[13] = system: Proteus rettgeri ATCC 14505; settings: Providencia rettgeri, ATCC14505, aerobic, read-out: minimum inhibitory concentration (MIC)
[14] = system: Enterobacter aerogenes NR 2945; settings: Klebsiella aerogenes, NR2945, aerobic, read-out: minimum inhibitory concentration (MIC)
[15] = system: Bordetella bronchiseptica ATCC 4617; settings: ATCC4617, aerobic, read-out: minimum inhibitory concentration (MIC)
[16] = system: Proteus vulgaris OX19 ATCC 6898; settings: ATCC6898, aerobic, read-out: minimum inhibitory concentration (MIC)
[17] = system: Pseudomonas aeruginosa A3; settings: aerobic, read-out: minimum inhibitory concentration (MIC)
[18] = system: Klebsiella pneumoniae FDA PCI 602; settings: FDAPCI602, aerobic, read-out: minimum inhibitory concentration (MIC)
[19] = system: Pseudomonas stutzeri IFO 12695; settings: Stutzerimonas stutzeri, IFO12695, aerobic, read-out: minimum inhibitory concentration (MIC)
[20] = system: Serratia marcescens IFO 12648; settings: IFO12648, aerobic, read-out: minimum inhibitory concentration (MIC)
[21] = system: Enterococcus faecalis NR 2943; settings: NR2943, aerobic, read-out: minimum inhibitory concentration (MIC)
[22] = system: Staphylococcus epidermidis IFO 12993; settings: IFO12993, aerobic, read-out: minimum inhibitory concentration (MIC)
[23] = NR2630, Escherichia coli NR 2630, aerobic, agar dilution, read-out: minimum inhibitory concentration (MIC)
[24] = Staphylococcus aureus Smith, aerobic, agar dilution
[25] = Staphylococcus aureus FDA 209P JC-1, aerobic, agar dilution

Row | Compound | MIC [1] [µg/mL] | MIC [2] [µg/mL] | MIC [3] [µg/mL] | MIC [4] [µg/mL] | MIC [7] [µg/mL] | MIC [8] [µg/mL] | MIC [9] [µg/mL] | MIC [10, 23] [µg/mL] | MIC [11] [µg/mL] | MIC [12] [µg/mL] | MIC [13] [µg/mL] | MIC [14] [µg/mL] | MIC [15] [µg/mL] | MIC [16] [µg/mL] | MIC [17] [µg/mL] | MIC [18] [µg/mL] | MIC [19] [µg/mL] | MIC [20] [µg/mL] | MIC [21] [µg/mL] | MIC [22] [µg/mL] | also measured
1 | CN1COc2c(N3CCC(O)C3)c(F)cc3c(=O)c(C(=O)O)cn1c23 (stereo not shown) [Example 21, 9-fluoro-10-(3-hydroxy-1-pyrrolidinyl)-3-methyl-7-oxo-2,3-dihydro-7H-pyrido[3,2,1-ij]-1,3,4-benzoxadiazine-6-carboxylic acid] | 0.39 (≈ 1.12 µM) | 0.78 (≈ 2.23 µM) | 0.78 (≈ 2.23 µM) | 0.05 (≈ 0.143 µM) | 3.13 (≈ 8.96 µM) | 0.2 (≈ 0.573 µM) | 0.39 (≈ 1.12 µM) | 0.2 (≈ 0.573 µM) | 0.78 (≈ 2.23 µM) | 0.39 (≈ 1.12 µM) | 0.78 (≈ 2.23 µM) | 0.2 (≈ 0.573 µM) | 0.78 (≈ 2.23 µM) | 0.05 (≈ 0.143 µM) | 1.56 (≈ 4.47 µM) | 0.78 (≈ 2.23 µM) | 0.2 (≈ 0.573 µM) | 0.39 (≈ 1.12 µM) | 3.13 (≈ 8.96 µM) | 0.39 (≈ 1.12 µM) | MIC ([5]; Staphylococcus aureus): 0.39 µg/mL (≈ 1.12 µM); MIC ([6]; Staphylococcus aureus): 0.39 µg/mL (≈ 1.12 µM)
2 | Cc1cn(-c2c(F)cc3c(=O)c(C(=O)O)cn4c3c2OCN4C)cn1 [Example 22] | 0.2 (≈ 0.581 µM) | 0.1 (≈ 0.29 µM) | 3.13 (≈ 9.09 µM) | 0.05 (≈ 0.145 µM) | 6.25 (≈ 18.2 µM) | 0.39 (≈ 1.13 µM) | 0.1 (≈ 0.29 µM) | 0.025 (≈ 0.0726 µM) | 0.1 (≈ 0.29 µM) | 0.1 (≈ 0.29 µM) | 0.78 (≈ 2.27 µM) | 0.1 (≈ 0.29 µM) | 1.56 (≈ 4.53 µM) | 0.0065 (≈ 0.0189 µM) | 1.56 (≈ 4.53 µM) | 0.39 (≈ 1.13 µM) | 0.1 (≈ 0.29 µM) | 0.78 (≈ 2.27 µM) | 3.13 (≈ 9.09 µM) | 0.39 (≈ 1.13 µM) | MIC [5, 24]: 0.2 µg/mL (≈ 0.581 µM); MIC [6, 25]: 0.2 µg/mL (≈ 0.581 µM)
3 | CC1Oc2c(N3CCNCC3)c(F)cc3c(=O)c(C(=O)O)cn(c23)N1C (stereo not shown) [Example 25] | 6.25 (≈ 17.2 µM) | 0.78 (≈ 2.15 µM) | 50 (≈ 138 µM) | 0.78 (≈ 2.15 µM) | 50 (≈ 138 µM) | 12.5 (≈ 34.5 µM) | 0.78 (≈ 2.15 µM) | – | 0.78 (≈ 2.15 µM) | 0.2 (≈ 0.552 µM) | 25 (≈ 69 µM) | 0.39 (≈ 1.08 µM) | 100 (≈ 276 µM) | 0.1 (≈ 0.276 µM) | 3.13 (≈ 8.64 µM) | 3.13 (≈ 8.64 µM) | 0.39 (≈ 1.08 µM) | 3.13 (≈ 8.64 µM) | 100 (≈ 276 µM) | 6.25 (≈ 17.2 µM) | MIC [5, 24]: 1.56 µg/mL (≈ 4.31 µM); MIC [6, 25]: 6.25 µg/mL (≈ 17.2 µM); MIC ([10]; Escherichia coli, NR2630, read-out: minimum inhibitory concentration (MIC)): 0.39 µg/mL (≈ 1.08 µM)
4 | CC1Oc2c(N3CCN(C)CC3)c(F)cc3c(=O)c(C(=O)O)cn(c23)N1C (stereo not shown) [Example 26] | 3.13 (≈ 8.32 µM) | 0.78 (≈ 2.07 µM) | 12.5 (≈ 33.2 µM) | 0.78 (≈ 2.07 µM) | 50 (≈ 133 µM) | 1.56 (≈ 4.14 µM) | 0.78 (≈ 2.07 µM) | 0.2 (≈ 0.531 µM) | 0.78 (≈ 2.07 µM) | 0.78 (≈ 2.07 µM) | 6.25 (≈ 16.6 µM) | 0.2 (≈ 0.531 µM) | 12.5 (≈ 33.2 µM) | 0.39 (≈ 1.04 µM) | 6.25 (≈ 16.6 µM) | 3.13 (≈ 8.32 µM) | 0.78 (≈ 2.07 µM) | 1.56 (≈ 4.14 µM) | 25 (≈ 66.4 µM) | 3.13 (≈ 8.32 µM) | MIC [5, 24]: 3.13 µg/mL (≈ 8.32 µM); MIC [6, 25]: 3.13 µg/mL (≈ 8.32 µM)
5 | CNC1CCN(c2c(F)cc3c(=O)c(C(=O)O)cn4c3c2OCN4C)C1 (stereo not shown) [Example 31] | 0.39 (≈ 1.08 µM) | 0.05 (≈ 0.138 µM) | 3.13 (≈ 8.64 µM) | 0.05 (≈ 0.138 µM) | 1.56 (≈ 4.31 µM) | 0.78 (≈ 2.15 µM) | 0.05 (≈ 0.138 µM) | 0.025 (≈ 0.069 µM) | 0.05 (≈ 0.138 µM) | 0.025 (≈ 0.069 µM) | 0.39 (≈ 1.08 µM) | 0.025 (≈ 0.069 µM) | 3.13 (≈ 8.64 µM) | 0.025 (≈ 0.069 µM) | 0.2 (≈ 0.552 µM) | 0.2 (≈ 0.552 µM) | 0.025 (≈ 0.069 µM) | 0.2 (≈ 0.552 µM) | 12.5 (≈ 34.5 µM) | 0.39 (≈ 1.08 µM) | MIC [5, 24]: 0.2 µg/mL (≈ 0.552 µM); MIC [6, 25]: 0.39 µg/mL (≈ 1.08 µM)
6 | CCNC1CCN(c2c(F)cc3c(=O)c(C(=O)O)cn4c3c2OCN4C)C1 (stereo not shown) [Example 32] | 0.39 (≈ 1.04 µM) | 0.1 (≈ 0.266 µM) | 1.56 (≈ 4.14 µM) | 0.05 (≈ 0.133 µM) | 3.13 (≈ 8.32 µM) | 0.39 (≈ 1.04 µM) | 0.1 (≈ 0.266 µM) | 0.025 (≈ 0.0664 µM) | 0.1 (≈ 0.266 µM) | 0.025 (≈ 0.0664 µM) | 1.56 (≈ 4.14 µM) | 0.025 (≈ 0.0664 µM) | 1.56 (≈ 4.14 µM) | 0.025 (≈ 0.0664 µM) | 0.39 (≈ 1.04 µM) | 0.39 (≈ 1.04 µM) | 0.1 (≈ 0.266 µM) | 0.39 (≈ 1.04 µM) | 6.25 (≈ 16.6 µM) | 0.39 (≈ 1.04 µM) | MIC [5, 24]: 0.1 µg/mL (≈ 0.266 µM); MIC [6, 25]: 0.2 µg/mL (≈ 0.531 µM)
7 | COC1CCN(c2c(F)cc3c(=O)c(C(=O)O)cn4c3c2OCN4C)C1 (stereo not shown) [Example 37, 9-fluoro-10-(3-methoxy-1-pyrrolidinyl)-3-methyl-7-oxo-2,3-dihydro-7H-pyrido[3,2,1-ij]-1,3,4-benzoxadiazine-6-carboxylic acid] | ≤ 0.0008 | 0.78 (≈ 2.15 µM) | 12.5 (≈ 34.4 µM) | ≤ 0.0008 | 25 (≈ 68.8 µM) | ≤ 0.0008 | 0.1 (≈ 0.275 µM) | ≤ 0.0008 | 0.2 (≈ 0.55 µM) | 0.2 (≈ 0.55 µM) | 6.25 (≈ 17.2 µM) | 0.1 (≈ 0.275 µM) | 1.56 (≈ 4.29 µM) | ≤ 0.0008 | 6.25 (≈ 17.2 µM) | 3.13 (≈ 8.61 µM) | 0.013 (≈ 0.0358 µM) | 0.78 (≈ 2.15 µM) | 3.13 (≈ 8.61 µM) | 0.025 (≈ 0.0688 µM) | MIC [5, 24]: ≤ 0.0008 µg/mL; MIC [6, 25]: 0.0016 µg/mL (≈ 0.0044 µM)
